Laboratory results from publication PMC7751407, “Novel oxindole/benzofuran hybrids as potential dual CDK2/GSK-3β inhibitors targeting breast cancer: design, synthesis, biological evaluation, and in silico studies” (Journal of Enzyme Inhibition and Medicinal Chemistry, 2020).

Assays:
GSK-3β = target: T1, GSK-3β (Homo sapiens, UniProt P49841); test: GSK-3β kinase inhibition (GSK3β Assay Kit, BPS Biosciences); type: biochemical; settings: mean ± SD of three separate experiments
T1 construct: purchased BPS Biosciences, San Diego, CA, USA 79700
Description: (§1) 2. CDK2/GSK-3β Kinase Inhibitory Activities
(§2) The CDK2 and GSK-3β inhibitory activities were determined for hybrids 5a-g using the CDK2
(§3) Kinase Enzyme System (catalog No. V2971) (Promega, Milan, Italy), and GSK3β Assay Kit

CDK2 = target: T2, CDK2 (Homo sapiens, UniProt P24941); test: CDK2 kinase inhibition (CDK2 Kinase Enzyme System, Promega); type: biochemical; settings: mean ± SD of three separate experiments
T2 construct: purchased Promega, Milan, Italy V2971
Description: as §1, §2, §3

MCF-7 = test: MTT anti-proliferative assay, MCF-7 breast cancer cells; type: cell-based; settings: Homo sapiens, MCF7, 48 h exposure, mean ± SD of three separate experiments
Description: (§4) 1. Anti-proliferative activity toward human breast cell lines
(§5) The two examined human breast cancer cell lines (T-47D and MCF-7) have been obtained from American Type Culture Collection (ATCC). Cells lines were maintained as monolayers in Dulbecco’s Modified Eagle’s Medium (DMEM) supplemented with 10% FBS, 2 mM L-glutamine, 100 U/ml penicillin and 100µg/ml streptomycin sulfate. Cells were sub-cultured with trypsine /EDTA solution, counted with haemocytometer and plated onto 96-well plates (5000 cells/well) and left overnight to form a semi-confluent monolayer. Cell monolayers were treated in quadrates with vehicle (DMSO, 0.1% v/v), test samples or Adriamycin as positive control for an exposure time of 48 h. At the end of exposure, MTT solution in PBS (5 mg/ml) was then added to all well including no cell blank and left to incubate for 90 min. The formation of formazan crystals were visually confirmed using phase contract microscopy. DMSO (100 µl/well) was added to dissolve the formazan crystals with shaking for 10 min after which the absorbance was read at 590 nm against no cell blanks on a FLuo Star Optima microplate reader (BMG technologies, Germany).
(§6) Cell proliferation was calculated comparing the OD values of the DMSO control wells and those of the samples represented as % proliferation to the control. Dose-response experiment was performed on samples producing > or =50% loss of cell proliferation using five serial 2-fold […]
(§7) IC50 values (concentration of sample causing 50% loss of cell proliferation of the vehicle control) were calculated using non-linear regression curve fitting of the dose response plots on GraphPad Prism V.6.0 software. […]

T-47D = test: MTT anti-proliferative assay, T-47D breast cancer cells; type: cell-based; settings: Homo sapiens, T47D, 48 h exposure, mean ± SD of three separate experiments
Description: as §4, §5, §6, §7

MCF-7 cells [1] = test: Cell cycle analysis by flow cytometry (PI stain) in MCF-7 cells; type: cell-based, human; settings: 24 h, at IC50 concentration; for %Sub-G1: control 1.29; for %G2/M: control 11.3; for %S: control 33.82; for %G0-G1: control 53.59
Description: Compounds showing promising antiproliferative as well as kinase inhibitory activity 5d, 5e and 5f were further investigated for their influence on the cell cycle progression by flow cytometry analysis using propidium iodide (PI) stain. Cell cycle parameters were compared for the breast cancer MCF-7 cells with DMSO as control and after treatment with the compounds of interest and incubation for 24 h, and the results were presented in Figure 5 and Table 3. […]
concentration), and then cells were washed twice with ice-cold phosphate buffered saline (PBS).
Subsequently, the treated cells were collected by centrifugation, fixed in ice-cold 70% (v/v) ethanol, washed with PBS, re-suspended with 100 μg/mL RNase, stained with 40 μg/mL PI, and analyzed by flow cytometry using FACS Calibur (Becton Dickinson, BD, Franklin Lakes, NJ,

MCF-7 cells [2] = test: Annexin V-FITC/PI dual staining apoptosis assay in MCF-7 cells; type: cell-based, human; settings: at IC50 concentration; for Late Apoptosis (Upper Right %): control 0.19; for Early Apoptosis (Lower Right %): control 0.63; for Total apoptosis (L.R % + U.R %): control 0.82; for Necrosis: upper left quadrant, control 0.49
Description: To investigate further the effect of the promising compounds 5d, 5e, and 5f on cell apoptosis, Annexin V-FITC/propidium iodide dual staining assay was performed according to the reported method. The morphological markers of apoptosis in the breast cancer MCF-7 cell line were examined before and after treatment with the compounds of interest. Apoptosis assay depends on the translocation of the phosphatidylserine (PS) phospholipid to the cell surface in cells undergoing apoptosis which can be easily detected by staining with the fluorescent conjugate of annexin V followed by flow cytometry analysis. Simultaneously, MCF-7 cells were stained with propidium iodide (PI) which could enter cells with damaged plasma membranes only. This enables the discrimination between early apoptotic cells (positive for PS, but negative for PI) from late apoptotic and necrotic cells (positive for both PS and PI). […]
4. Annexin V-FITC Apoptosis Assay
Phosphatidylserine externalization was assayed using Annexin V-FITC/PI apoptosis detection kit (BD Biosciences, USA) according to the manufacturer’s instructions. Breast cancer MCF-7 cells were cultured to a monolayer then treated with hybrids (5d, 5e and 5f) at their IC50 concentration. Briefly, cells were then harvested via trypsinization, and rinsed twice in PBS followed by binding buffer. Moreover, cells were re-suspended in 100 μL of binding buffer with the addition of 1 μL of FITC-Annexin V followed by an incubation period of 30 min at 4 °C. Cells were then rinsed in binding buffer and resuspended in 150 μL of binding buffer with the addition of 1 μL of DAPI (1 μg/μL in PBS). Cells were then analyzed using the flow cytometer BD FACS Canto II and the results were interpreted with FlowJo7.6.4 software (Tree Star, Ashland, OR,

MCF-10A = test: MTT cytotoxicity towards non-tumorigenic breast cells MCF-10A; type: cell-based, human; settings: for IC50: Homo sapiens, MCF-10A, MTT assay, non-tumorigenic breast cell line; for Mean tumour selectivity index (S.I.): IC50 for MCF-10A/IC50 average for (MCF-7 and T-47D)
Source text: In order to investigate their selectivity on cancer cells, hybrids 5d, 5e and 5f, endowed with dual growth inhibitory action against MCF-7 and T-47D cells, were assesses for their cytotoxic action towards the non-tumorigenic breast cells (MCF-10A), via the MTT assay. The obtained IC50s and the calculated mean tumour selectivity index (S.I.); IC50 for MCF-10A/IC50 average for (MCF-7 and T-47D) have been presented in Table 5.
as §4, §5
Cell proliferation was calculated comparing the OD values of the DMSO control wells and those of the samples represented as % proliferation to the control. Dose-response experiment was performed on samples producing > or =50% loss of cell proliferation using five serial 2-fold dilutions (50, 25, 12.5, 6.25 and 3.125 µM) of the sample. IC50 values (concentration of sample causing 50% loss of cell proliferation of the vehicle control) were calculated using non-linear regression curve fitting of the dose response plots on GraphPad Prism V.6.0 software. […]

T1 sequence (P49841 whole entry): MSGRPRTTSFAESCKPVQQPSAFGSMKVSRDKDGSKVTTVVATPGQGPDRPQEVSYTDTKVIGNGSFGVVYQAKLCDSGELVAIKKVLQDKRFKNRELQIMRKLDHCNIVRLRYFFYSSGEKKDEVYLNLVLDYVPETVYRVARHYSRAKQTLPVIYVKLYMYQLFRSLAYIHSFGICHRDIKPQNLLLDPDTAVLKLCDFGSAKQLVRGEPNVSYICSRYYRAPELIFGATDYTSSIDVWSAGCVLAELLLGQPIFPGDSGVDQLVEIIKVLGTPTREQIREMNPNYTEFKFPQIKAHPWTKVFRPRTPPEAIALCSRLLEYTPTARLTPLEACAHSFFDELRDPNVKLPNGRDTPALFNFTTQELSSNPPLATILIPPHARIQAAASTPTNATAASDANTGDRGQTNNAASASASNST

| SMILES | IC50 (GSK-3β) | IC50 (CDK2) | IC50 (MCF-7) | IC50 (T-47D) | melting point | also measured |
| --- | --- | --- | --- | --- | --- | --- |
| O=C1Nc2ccccc2C1=NNC(=O)c1cc2cc(Br)ccc2o1 [5a, 5-Bromo-N'-(2-oxoindolin-3-ylidene)benzofuran-2-carbohydrazide] | 0.137 ± 0.0075 µM | 0.141 ± 0.0077 µM | 5.47 ± 0.16 µM | 9.67 ± 0.31 µM | > 300 °C |  |
| O=C1Nc2ccc(F)cc2C1=NNC(=O)c1cc2cc(Br)ccc2o1 [5b, 5-Bromo-N'-(5-fluoro-2-oxoindolin-3-ylidene)benzofuran-2-carbohydrazide] | 0.212 ± 0.012 µM | 0.0525 ± 0.0029 µM | 12.9 ± 0.38 µM | 1.27 ± 0.04 µM | > 300 °C |  |
| O=C1Nc2ccc(Cl)cc2C1=NNC(=O)c1cc2cc(Br)ccc2o1 [5c, 5-Bromo-N'-(5-chloro-2-oxoindolin-3-ylidene)benzofuran-2-carbohydrazide] | 0.102 ± 0.0056 µM | 0.0854 ± 0.0046 µM | 12.5 ± 0.37 µM | 6.03 ± 0.19 µM | > 300 °C |  |
| O=C1Nc2ccc(Br)cc2C1=NNC(=O)c1cc2cc(Br)ccc2o1 [5d, 5-Bromo-N'-(5-bromo-2-oxoindolin-3-ylidene)benzofuran-2-carbohydrazide] | 0.0321 ± 0.0017 µM | 0.0378 ± 0.0021 µM | 3.41 ± 0.1 µM | 3.82 ± 0.12 µM | > 300 °C | %Sub-G1 (MCF-7 cells [1]): 13.27%; %G2/M (MCF-7 cells [1]): 30.26%; %S (MCF-7 cells [1]): 22.5%; %G0-G1 (MCF-7 cells [1]): 33.97%; Late Apoptosis (Upper Right %) (MCF-7 cells [2]): 10.14%; Early Apoptosis (Lower Right %) (MCF-7 cells [2]): 3.61%; Total apoptosis (L.R % + U.R %) (MCF-7 cells [2]): 13.75%; Necrosis (MCF-7 cells [2]): 1.56%; IC50 (MCF-10A): 21.7 ± 1.05 µM; Mean tumour selectivity index (S.I.) (MCF-10A): 6.0 |
| Cc1ccc2c(c1)C(=NNC(=O)c1cc3cc(Br)ccc3o1)C(=O)N2 [5e, 5-Bromo-N'-(5-methyl-2-oxoindolin-3-ylidene)benzofuran-2-carbohydrazide] | 0.0808 ± 0.0044 µM | 0.177 ± 0.0096 µM | 3.45 ± 0.1 µM | 4.53 ± 0.14 µM | > 300 °C | %Sub-G1 (MCF-7 cells [1]): 17.73%; %G2/M (MCF-7 cells [1]): 29.21%; %S (MCF-7 cells [1]): 23.21%; %G0-G1 (MCF-7 cells [1]): 29.85%; Late Apoptosis (Upper Right %) (MCF-7 cells [2]): 15.08%; Early Apoptosis (Lower Right %) (MCF-7 cells [2]): 4.66%; Total apoptosis (L.R % + U.R %) (MCF-7 cells [2]): 19.74%; Necrosis (MCF-7 cells [2]): 1.81%; IC50 (MCF-10A): 23.6 ± 0.86 µM; Mean tumour selectivity index (S.I.) (MCF-10A): 5.9 |
| Cc1cc(C)c2c(c1)C(=NNC(=O)c1cc3cc(Br)ccc3o1)C(=O)N2 [5g, 5-Bromo-N'-(5,7-dimethyl-2-oxoindolin-3-ylidene)benzofuran-2-carbohydrazide] | 0.0755 ± 0.0041 µM | 0.105 ± 0.0057 µM | 12 ± 0.35 µM | 6.65 ± 0.21 µM | > 300 °C |  |
| CN1C(=O)C(=NNC(=O)c2cc3cc(Br)ccc3o2)c2ccccc21 [7a, 5-Bromo-N'-(1-methyl-2-oxoindolin-3-ylidene)benzofuran-2-carbohydrazide] |  |  | 10.4 ± 1.01 µM | 11.8 ± 1.05 µM | 260 to 262 °C |  |
| C=CCN1C(=O)C(=NNC(=O)c2cc3cc(Br)ccc3o2)c2ccccc21 [7b, N'-(1-Allyl-2-oxoindolin-3-ylidene)-5-bromobenzofuran-2-carbohydrazide] |  |  | 2.64 ± 0.07 µM | 12.2 ± 0.4 µM | 207 to 209 °C |  |
| CC(C)CN1C(=O)C(=NNC(=O)c2cc3cc(Br)ccc3o2)c2ccccc21 [7c, 5-Bromo-N'-(1-isobutyl-2-oxoindolin-3-ylidene)benzofuran-2-carbohydrazide] |  |  | 37 ± 1.87 µM | 43.3 ± 2.39 µM | 216 to 218 °C |  |
| CCOC(=O)CN1C(=O)C(=NNC(=O)c2cc3cc(Br)ccc3o2)c2ccccc21 [7d, Ethyl-2–(3-(2–(5-bromobenzofuran-2-carbonyl)hydrazono)-2-oxoindolin-1-yl)acetate] |  |  | 7.48 ± 0.22 µM | 19 ± 0.62 µM | 215 to 216 °C |  |
| O=C(NN=C1C(=O)N(Cc2ccccc2)c2ccccc21)c1cc2cc(Br)ccc2o1 [7e, N'-(1-Benzyl-2-oxoindolin-3-ylidene)-5-bromobenzofuran-2-carbohydrazide] |  |  | 8.33 ± 0.24 µM | 11.8 ± 0.38 µM | 248 to 250 °C |  |
| O=C(NN=C1C(=O)N(CCc2ccccc2)c2ccccc21)c1cc2cc(Br)ccc2o1 [7f, 5-Bromo-N'-(2-oxo-1-phenethylindolin-3-ylidene)benzofuran-2-carbohydrazide] |  |  | 24.7 ± 0.72 µM | 38.7 ± 1.26 µM | 239 to 241 °C |  |
| CC(C)CN1C(=O)C(=NNC(=O)c2cc3cc(Br)ccc3o2)c2cc(Br)ccc21 [7g, 5-Bromo-N'-(5-bromo-1-isobutyl-2-oxoindolin-3-ylidene)benzofuran-2-carbohydrazide] |  |  | 24.8 ± 0.73 µM | 9.67 ± 0.31 µM | 244 to 246 °C |  |
| O=C(NN=C1C(=O)N(Cc2ccccc2)c2ccc(Br)cc21)c1cc2cc(Br)ccc2o1 [7h, N'-(1-Benzyl-5-bromo-2-oxoindolin-3-ylidene)-5-bromobenzofuran-2-carbohydrazide] |  |  | 4.32 ± 0.12 µM | 1.72 ± 0.04 µM | 236 to 237 °C |  |
| CC(C)CN1C(=O)C(=NNC(=O)Nc2cc3cc(Br)ccc3o2)c2ccccc21 [13a, N-(5-Bromobenzofuran-2-yl)-2–(1-isobutyl-2-oxoindolin-3-ylidene)hydrazine-1-carboxamide] |  |  | 18.2 ± 0.53 µM | 3.22 ± 0.1 µM | 208 to 210 °C |  |
| O=C(NN=C1C(=O)N(Cc2ccccc2)c2ccccc21)Nc1cc2cc(Br)ccc2o1 [13b, 2–(1-Benzyl-2-oxoindolin-3-ylidene)-N-(5-bromobenzofuran-2-yl)hydrazine-1-carboxamide] |  |  | 5.7 ± 0.16 µM | 10.9 ± 0.35 µM | 217 to 219 °C |  |
